Reference: ChEMBL document CHEMBL1201861, “Genomics of Drug Sensitity in Cancer screening data, Wellcome Trust Sanger Institute”

Columns and labels:
Assay in all cases: cells
Conditions in all cases: Homo sapiens
NCI-H719 = assay type: functional, cell-based;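 note: growth inhibition of the cultured cell line, read out with a viability assay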
Description: SANGER: Inhibition of human NCI-H719 cell growth in a cell viability assay.

NCI-H748 = assay type: functional, cell-based;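 note: growth inhibition of NCI-H748 cells, measured by a cell viability assay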
Description: SANGER: Inhibition of human NCI-H748 cell growth in a cell viability assay.

P31-FUJ = assay type: functional, cell-based;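 note: growth inhibition of P31-FUJ cells, read out with a viability assay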
Description: SANGER: Inhibition of human P31-FUJ cell growth in a cell viability assay.

MDA-MB-134-VI = assay type: functional, cell-based
Description: SANGER: Inhibition of human MDA-MB-134-VI cell growth in a cell viability assay.

Daudi = assay type: functional, cell-based;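 note: growth inhibition of Daudi cells, read out by a viability assay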
Description: SANGER: Inhibition of human Daudi cell growth in a cell viability assay.

HCC2157 = assay type: functional, cell-based;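 note: growth inhibition of the cancer cell line, read out as cell viability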
Description: SANGER: Inhibition of human HCC2157 cell growth in a cell viability assay.

NCI-H2171 = assay type: functional, cell-based;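 note: growth inhibition of human NCI-H2171 cells, read out by a cell viability assay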
Description: SANGER: Inhibition of human NCI-H2171 cell growth in a cell viability assay.

D-247MG = assay type: functional, cell-based
Description: SANGER: Inhibition of human D-247MG cell growth in a cell viability assay.

D-336MG = assay type: functional, cell-based
Description: SANGER: Inhibition of human D-336MG cell growth in a cell viability assay.

IST-SL2 = assay type: functional, cell-based;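 note: growth inhibition of human IST-SL2 cells, read out by a cell viability assay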
Description: SANGER: Inhibition of human IST-SL2 cell growth in a cell viability assay.

U-698-M = assay type: functional, cell-based
Description: SANGER: Inhibition of human U-698-M cell growth in a cell viability assay.

MRK-nu-1 = assay type: functional, cell-based;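 note: cell viability assay measuring growth suppression of human MRK-nu-1 cells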
Description: SANGER: Inhibition of human MRK-nu-1 cell growth in a cell viability assay.

EB2 = assay type: functional, cell-based;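 note: growth inhibition of EB2 cells, read out with a cell viability assay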
Description: SANGER: Inhibition of human EB2 cell growth in a cell viability assay.

NCI-H2141 = assay type: functional, cell-based;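 note: growth inhibition of human NCI-H2141 cells, read out with a cell viability assay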
Description: SANGER: Inhibition of human NCI-H2141 cell growth in a cell viability assay.

BT-20 = assay type: functional, cell-based;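 note: cell viability assay measuring suppression of growth in human BT-20 cells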
Description: SANGER: Inhibition of human BT-20 cell growth in a cell viability assay.

SNU-423 = assay type: functional, cell-based
Description: SANGER: Inhibition of human SNU-423 cell growth in a cell viability assay.

JEG-3 = assay type: functional, cell-based;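 note: growth inhibition of human JEG-3 cells, read out with a cell viability assay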
Description: SANGER: Inhibition of human JEG-3 cell growth in a cell viability assay.

SCC-4 = assay type: functional, cell-based;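 note: growth inhibition of human SCC-4 cells, read out as cell viability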
Description: SANGER: Inhibition of human SCC-4 cell growth in a cell viability assay.

KYSE-510 = assay type: functional, cell-based;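 note: cell viability readout used to measure how strongly growth of the cell line is suppressed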
Description: SANGER: Inhibition of human KYSE-510 cell growth in a cell viability assay.

SW1463 = assay type: functional, cell-based;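 note: growth inhibition of SW1463 cells, determined with a cell viability assay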
Description: SANGER: Inhibition of human SW1463 cell growth in a cell viability assay.

HCC38 = assay type: functional, cell-based;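 note: cell viability assay on the human HCC38 cell line, with IC50 marking the concentration that inhibits cell growth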
Description: SANGER: Inhibition of human HCC38 cell growth in a cell viability assay.

NCI-H1993 = assay type: functional, cell-based;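 note: growth inhibition of the cancer cell line, assessed with a cell viability assay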
Description: SANGER: Inhibition of human NCI-H1993 cell growth in a cell viability assay.

SiHa = assay type: functional, cell-based;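 note: Viability-based readout of growth inhibition in SiHa cells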
Description: SANGER: Inhibition of human SiHa cell growth in a cell viability assay.

NCI-H2009 = assay type: functional, cell-based;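 note: cell viability assay measuring inhibition of NCI-H2009 cell growth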
Description: SANGER: Inhibition of human NCI-H2009 cell growth in a cell viability assay.

GP5d = assay type: functional, cell-based;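 note: growth inhibition of human GP5d cells, read out with a cell viability assay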
Description: SANGER: Inhibition of human GP5d cell growth in a cell viability assay.

CAPAN-1 = assay type: functional, cell-based;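 note: growth suppression of CAPAN-1 cells, read out by a cell viability assay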
Description: SANGER: Inhibition of human CAPAN-1 cell growth in a cell viability assay.

S-117 = assay type: functional, cell-based
Description: SANGER: Inhibition of human S-117 cell growth in a cell viability assay.

Ca9-22 = assay type: functional, cell-based;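 note: growth inhibition of Ca9-22 cells, read out with a cell viability assay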
Description: SANGER: Inhibition of human Ca9-22 cell growth in a cell viability assay.

647-V = assay type: functional, cell-based;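 note: growth inhibition of 647-V cells, read out with a cell viability assay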
Description: SANGER: Inhibition of human 647-V cell growth in a cell viability assay.

MKN-28 = assay type: functional, cell-based;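 note: cell viability assay read-out, IC50 reflects suppression of growth of human MKN-28 cells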
Description: SANGER: Inhibition of human MKN28 cell growth in a cell viability assay.

TYK-nu = assay type: functional, cell-based;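 note: growth inhibition of human TYK-nu cells, read out by a cell viability assay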
Description: SANGER: Inhibition of human TYK-nu cell growth in a cell viability assay.

LN-405 = assay type: functional, cell-based
Description: SANGER: Inhibition of human LN-405 cell growth in a cell viability assay.

SNU-387 = assay type: functional, cell-based
Description: SANGER: Inhibition of human SNU-387 cell growth in a cell viability assay.

BHT-101 = assay type: functional, cell-based
Description: SANGER: Inhibition of human BHT-101 cell growth in a cell viability assay.

MCF7 = assay type: functional, cell-based;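 note: growth inhibition of human MCF7 cells, read out with a cell viability assay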
Description: SANGER: Inhibition of human MCF7 cell growth in a cell viability assay.

ABC-1 = assay type: functional, cell-based;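 note: growth inhibition of human ABC-1 cells, read out by a cell viability assay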
Description: SANGER: Inhibition of human ABC-1 cell growth in a cell viability assay.

SW1710 = assay type: functional, cell-based;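 note: growth inhibition of SW1710 cells, determined with a cell viability assay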
Description: SANGER: Inhibition of human SW1710 cell growth in a cell viability assay.

5637 = assay type: functional, cell-based
Description: SANGER: Inhibition of human 5637 cell growth in a cell viability assay.

SK-LU-1 = assay type: functional, cell-based;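 note: cell viability assay measuring growth inhibition of human SK-LU-1 cells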
Description: SANGER: Inhibition of human SK-LU-1 cell growth in a cell viability assay.

C32 = assay type: functional, cell-based;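 note: cell viability assay, with IC50 reflecting inhibition of C32 cell growth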
Description: SANGER: Inhibition of human C32 cell growth in a cell viability assay.

KYSE-180 = assay type: functional, cell-based;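 note: growth inhibition of KYSE-180 cells, read out with a cell viability assay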
Description: SANGER: Inhibition of human KYSE-180 cell growth in a cell viability assay.

RD = assay type: functional, cell-based
Description: SANGER: Inhibition of human RD cell growth in a cell viability assay.

M14 = assay type: functional, cell-based;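 note: growth inhibition of M14 cells, read out with a cell viability assay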
Description: SANGER: Inhibition of human M14 cell growth in a cell viability assay.

OVCAR-8 = assay type: functional, cell-based;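 note: growth inhibition of human OVCAR-8 cells, read out by a cell viability assay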
Description: SANGER: Inhibition of human OVCAR-8 cell growth in a cell viability assay.

COLO-792 = assay type: functional, cell-based
Description: SANGER: Inhibition of human COLO-792 cell growth in a cell viability assay.

SAOS-2 = assay type: functional, cell-based;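 note: growth inhibition of human Saos-2 cells determined by a cell viability assay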
Description: SANGER: Inhibition of human Saos-2 cell growth in a cell viability assay.

HO-1-N-1 = assay type: functional, cell-based;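 note: growth inhibition of human HO-1-N-1 cells, read out with a cell viability assay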
Description: SANGER: Inhibition of human HO-1-N-1 cell growth in a cell viability assay.

MC-IXC = assay type: functional, cell-based;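 note: growth inhibition of MC-IXC cells, read out with a cell viability assay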
Description: SANGER: Inhibition of human MC-IXC cell growth in a cell viability assay.

A2058 = assay type: functional, cell-based;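 note: reduction of A2058 cell growth, read out with a viability assay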
Description: SANGER: Inhibition of human A2058 cell growth in a cell viability assay.

23132-87 = assay type: functional, cell-based
Description: SANGER: Inhibition of human 23132-87 cell growth in a cell viability assay.

T98G = assay type: functional, cell-based;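 note: growth inhibition of T98G cells, read out by a cell viability assay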
Description: SANGER: Inhibition of human T98G cell growth in a cell viability assay.

NCI-H650 = assay type: functional, cell-based;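 note: growth inhibition of NCI-H650 cells, read out by a viability assay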
Description: SANGER: Inhibition of human NCI-H650 cell growth in a cell viability assay.

SW-620 = assay type: functional, cell-based;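 note: growth inhibition of human SW-620 cells, measured by a cell viability assay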
Description: SANGER: Inhibition of human SW620 cell growth in a cell viability assay.

SBC-5 = assay type: functional, cell-based;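 note: cell viability assay read-out, IC50 is the concentration that inhibits growth of the cells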
Description: SANGER: Inhibition of human SBC-5 cell growth in a cell viability assay.

LCLC-97TM1 = assay type: functional, cell-based;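 note: cell viability assay measuring growth inhibition of human LCLC-97TM1 cells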
Description: SANGER: Inhibition of human LCLC-97TM1 cell growth in a cell viability assay.

MEL-JUSO = assay type: functional, cell-based;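 note: growth inhibition of human MEL-JUSO cells, read out with a cell viability assay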
Description: SANGER: Inhibition of human MEL-JUSO cell growth in a cell viability assay.

SK-HEP1 = assay type: functional, cell-based, SK-HEP-1;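 note: cell viability readout used to quantify reduction in proliferation of human SK-HEP-1 cells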
Description: SANGER: Inhibition of human SK-HEP-1 cell growth in a cell viability assay.

BEN = assay type: functional, cell-based;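 note: growth inhibition of the BEN cell line, read out with a cell viability assay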
Description: SANGER: Inhibition of human BEN cell growth in a cell viability assay.

YAPC = assay type: functional, cell-based;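 note: growth inhibition of YAPC cells, measured with a cell viability assay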
Description: SANGER: Inhibition of human YAPC cell growth in a cell viability assay.

SK-MEL-24 = assay type: functional, cell-based;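 note: growth inhibition read out by a cell viability assay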
Description: SANGER: Inhibition of human SK-MEL-24 cell growth in a cell viability assay.

Detroit 562 = assay type: functional, cell-based;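 note: growth inhibition of human Detroit 562 cells, read out by a cell viability assay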
Description: SANGER: Inhibition of human Detroit562 cell growth in a cell viability assay.

EFO-21 = assay type: functional, cell-based;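 note: growth inhibition of EFO-21 cells measured with a viability assay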
Description: SANGER: Inhibition of human EFO-21 cell growth in a cell viability assay.

639-V = assay type: functional, cell-based
Description: SANGER: Inhibition of human 639-V cell growth in a cell viability assay.

CCNc1cc(N[C@H]2CC[C@@H](O)CC2)nc(Nc2ccc3c(ccn3Cc3ccccc3)c2)n1
IC50 (NCI-H719): > 5.12 µM
IC50 (NCI-H748): > 5.12 µM
IC50 (P31-FUJ): > 5.12 µM
IC50 (MDA-MB-134-VI): > 5.12 µM
IC50 (Daudi): > 5.12 µM
IC50 (HCC2157): > 5.12 µM
IC50 (NCI-H2171): > 5.12 µM
IC50 (D-247MG): > 5.12 µM
IC50 (D-336MG): > 5.12 µM
IC50 (IST-SL2): 4.56 µM
IC50 (U-698-M): > 5.12 µM
IC50 (MRK-nu-1): 3.09 µM
IC50 (EB2): > 5.12 µM
IC50 (NCI-H2141): > 5.12 µM

N#C/C(=C1/Nc2ccccc2S1)c1ccnc(NCCc2cccnc2)n1
IC50 (BT-20): > 8 µM
IC50 (SNU-423): 2.3 µM
IC50 (JEG-3): > 8 µM
IC50 (NCI-H719): > 8 µM
IC50 (SCC-4): > 8 µM
IC50 (KYSE-510): > 8 µM
IC50 (SW1463): > 8 µM
IC50 (NCI-H748): > 8 µM
IC50 (HCC38): 5.3 µM
IC50 (NCI-H1993): > 8 µM
IC50 (SiHa): > 8 µM
IC50 (NCI-H2009): > 8 µM
IC50 (GP5d): 7.52 µM
IC50 (CAPAN-1): > 8 µM
IC50 (P31-FUJ): > 8 µM
IC50 (S-117): 6.94 µM
IC50 (Ca9-22): > 8 µM
IC50 (647-V): > 8 µM
IC50 (MKN-28): > 8 µM
IC50 (TYK-nu): 1.75 µM
IC50 (MDA-MB-134-VI): > 8 µM
IC50 (LN-405): > 8 µM
IC50 (SNU-387): 3.8 µM
IC50 (BHT-101): > 8 µM
IC50 (MCF7): 1.5 µM
IC50 (ABC-1): > 8 µM
IC50 (SW1710): 1.59 µM
IC50 5637: > 8 µM
IC50 (SK-LU-1): 4.64 µM
IC50 (C32): > 8 µM
IC50 (KYSE-180): > 8 µM
IC50 (RD): > 8 µM
IC50 (M14): > 8 µM
IC50 (Daudi): 6.54 µM
IC50 (HCC2157): > 8 µM
IC50 (OVCAR-8): > 8 µM
IC50 (COLO-792): > 8 µM
IC50 (SAOS-2): > 8 µM
IC50 (HO-1-N-1): > 8 µM
IC50 (MC-IXC): > 8 µM
IC50 (NCI-H2171): > 8 µM
IC50 (A2058): > 8 µM
IC50 (23132-87): 7.1 µM
IC50 (T98G): > 8 µM
IC50 (IST-SL2): > 8 µM
IC50 (NCI-H650): > 8 µM
IC50 (U-698-M): 2.98 µM
IC50 (MRK-nu-1): > 8 µM
IC50 (SW-620): > 8 µM
IC50 (SBC-5): 6.89 µM
IC50 (LCLC-97TM1): 2.12 µM
IC50 (MEL-JUSO): 3.65 µM
IC50 (SK-HEP1): 4.86 µM
IC50 (BEN): > 8 µM
IC50 (YAPC): > 8 µM
IC50 (SK-MEL-24): > 8 µM
IC50 (Detroit 562): 7.08 µM
IC50 (EB2): > 8 µM
IC50 (NCI-H2141): > 8 µM
IC50 (EFO-21): > 8 µM
IC50 (639-V): 4.84 µM

C/C(O)=C(\C#N)C(=O)Nc1cc(Br)ccc1Br
IC50 (BT-20): > 16 µM
IC50 (SNU-423): > 16 µM
IC50 (JEG-3): > 16 µM
IC50 (NCI-H719): > 16 µM
IC50 (SCC-4): > 16 µM
IC50 (KYSE-510): > 16 µM
IC50 (SW1463): > 16 µM
IC50 (NCI-H748): > 16 µM
IC50 (HCC38): > 16 µM
IC50 (NCI-H1993): > 16 µM
IC50 (SiHa): > 16 µM
IC50 (NCI-H2009): > 16 µM
IC50 (GP5d): > 16 µM
IC50 (CAPAN-1): > 16 µM
IC50 (P31-FUJ): > 16 µM
IC50 (S-117): > 16 µM
IC50 (Ca9-22): > 16 µM
IC50 (647-V): > 16 µM
IC50 (MKN-28): > 16 µM
IC50 (TYK-nu): > 16 µM
IC50 (MDA-MB-134-VI): > 16 µM
IC50 (LN-405): > 16 µM
IC50 (SNU-387): > 16 µM
IC50 (BHT-101): > 16 µM
IC50 (MCF7): > 16 µM
IC50 (ABC-1): > 16 µM
IC50 (SW1710): > 16 µM
IC50 5637: > 16 µM
IC50 (SK-LU-1): > 16 µM
IC50 (C32): > 16 µM
IC50 (KYSE-180): > 16 µM
IC50 (RD): > 16 µM
IC50 (M14): > 16 µM
IC50 (Daudi): > 16 µM
IC50 (HCC2157): > 16 µM
IC50 (OVCAR-8): > 16 µM
IC50 (COLO-792): > 16 µM
IC50 (SAOS-2): > 16 µM
IC50 (HO-1-N-1): > 16 µM
IC50 (MC-IXC): > 16 µM
IC50 (NCI-H2171): > 16 µM
IC50 (A2058): > 16 µM
IC50 (23132-87): > 16 µM
IC50 (T98G): > 16 µM
IC50 (IST-SL2): > 16 µM
IC50 (NCI-H650): > 16 µM
IC50 (U-698-M): > 16 µM
IC50 (MRK-nu-1): > 16 µM
IC50 (SW-620): > 16 µM
IC50 (SBC-5): > 16 µM
IC50 (LCLC-97TM1): > 16 µM
IC50 (MEL-JUSO): > 16 µM
IC50 (SK-HEP1): > 16 µM
IC50 (BEN): > 16 µM
IC50 (YAPC): > 16 µM
IC50 (SK-MEL-24): > 16 µM
IC50 (Detroit 562): > 16 µM
IC50 (EB2): > 16 µM
IC50 (NCI-H2141): > 16 µM
IC50 (EFO-21): > 16 µM
IC50 (639-V): > 16 µM

Cc1n[nH]c2ccc(-c3cncc(OC[C@@H](N)Cc4c[nH]c5ccccc45)c3)cc12 [A-443654]
IC50 (NCI-H719): > 1.02 µM
IC50 (NCI-H748): 0.508 µM
IC50 (P31-FUJ): > 1.02 µM
IC50 (MDA-MB-134-VI): 0.489 µM
IC50 (Daudi): 0.355 µM
IC50 (HCC2157): 0.561 µM
IC50 (NCI-H2171): > 1.02 µM
IC50 (D-247MG): 0.974 µM
IC50 (D-336MG): 0.421 µM
IC50 (IST-SL2): 0.194 µM
IC50 (U-698-M): > 1.02 µM
IC50 (MRK-nu-1): 0.104 µM
IC50 (EB2): > 1.02 µM
IC50 (NCI-H2141): 0.54 µM

CC(O)(CS(=O)(=O)c1ccc(F)cc1)C(=O)Nc1ccc(C#N)c(C(F)(F)F)c1 (stereo not given) [BICALUTAMIDE]
IC50 (BT-20): > 1.02 µM
IC50 (SNU-423): > 1.02 µM
IC50 (JEG-3): > 1.02 µM
IC50 (NCI-H719): > 1.02 µM
IC50 (SCC-4): > 1.02 µM
IC50 (KYSE-510): > 1.02 µM
IC50 (SW1463): > 1.02 µM
IC50 (NCI-H748): > 1.02 µM
IC50 (HCC38): > 1.02 µM
IC50 (NCI-H1993): > 1.02 µM
IC50 (SiHa): > 1.02 µM
IC50 (NCI-H2009): > 1.02 µM
IC50 (GP5d): > 1.02 µM
IC50 (CAPAN-1): > 1.02 µM
IC50 (P31-FUJ): > 1.02 µM
IC50 (S-117): > 1.02 µM
IC50 (Ca9-22): > 1.02 µM
IC50 (647-V): > 1.02 µM
IC50 (MKN-28): > 1.02 µM
IC50 (TYK-nu): > 1.02 µM
IC50 (MDA-MB-134-VI): > 1.02 µM
IC50 (LN-405): > 1.02 µM
IC50 (SNU-387): > 1.02 µM
IC50 (BHT-101): > 1.02 µM
IC50 (MCF7): > 1.02 µM
IC50 (ABC-1): > 1.02 µM
IC50 (SW1710): > 1.02 µM
IC50 5637: > 1.02 µM
IC50 (SK-LU-1): > 1.02 µM
IC50 (C32): > 1.02 µM
IC50 (KYSE-180): > 1.02 µM
IC50 (RD): > 1.02 µM
IC50 (M14): > 1.02 µM
IC50 (Daudi): > 1.02 µM
IC50 (HCC2157): > 1.02 µM
IC50 (OVCAR-8): > 1.02 µM
IC50 (COLO-792): > 1.02 µM
IC50 (SAOS-2): > 1.02 µM
IC50 (HO-1-N-1): > 1.02 µM
IC50 (MC-IXC): > 1.02 µM
IC50 (NCI-H2171): > 1.02 µM
IC50 (A2058): > 1.02 µM
IC50 (23132-87): > 1.02 µM
IC50 (T98G): > 1.02 µM
IC50 (IST-SL2): > 1.02 µM
IC50 (NCI-H650): > 1.02 µM
IC50 (U-698-M): > 1.02 µM
IC50 (MRK-nu-1): > 1.02 µM
IC50 (SW-620): > 1.02 µM
IC50 (SBC-5): > 1.02 µM
IC50 (LCLC-97TM1): > 1.02 µM
IC50 (MEL-JUSO): > 1.02 µM
IC50 (SK-HEP1): > 1.02 µM
IC50 (BEN): > 1.02 µM
IC50 (YAPC): > 1.02 µM
IC50 (SK-MEL-24): > 1.02 µM
IC50 (Detroit 562): > 1.02 µM
IC50 (EB2): > 1.02 µM
IC50 (NCI-H2141): > 1.02 µM
IC50 (EFO-21): > 1.02 µM
IC50 (639-V): > 1.02 µM

Cc1nc(Nc2ncc(C(=O)Nc3c(C)cccc3Cl)s2)cc(N2CCN(CCO)CC2)n1 [DASATINIB]
IC50 (NCI-H719): > 1.28 µM
IC50 (NCI-H748): > 1.28 µM
IC50 (P31-FUJ): > 1.28 µM
IC50 (MDA-MB-134-VI): > 1.28 µM
IC50 (Daudi): > 1.28 µM
IC50 (HCC2157): > 1.28 µM
IC50 (NCI-H2171): > 1.28 µM
IC50 (D-247MG): > 1.28 µM
IC50 (D-336MG): 0.0063 µM
IC50 (IST-SL2): 0.503 µM
IC50 (U-698-M): > 1.28 µM
IC50 (MRK-nu-1): > 1.28 µM
IC50 (EB2): > 1.28 µM
IC50 (NCI-H2141): > 1.28 µM
